Source: ChEMBL document CHEMBL1201862, “PubChem BioAssay data set” (2004)
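How tested: cells in 96-well plates exposed to compound for 48 hours at five concentrations. The concentration for 50% growth inhibition is given as GI50.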 Active and inactive are the calls of the source. Cut-off read from the data, not from the text of the source: active = GI50 up to about 1.1 µM and inactive = higher.

Tests used:
Assay in all cases: inhibition of tumour cell growth, NCI panel, 48 h
CAKI-1 = system: CAKI-1
KM12 = system: KM12
OVCAR-4 = system: OVCAR-4
SW-620 = system: SW-620
786-0 = system: 786-0
SF-295 = system: SF-295
A549 = system: A549
SR = system: SR
HCT-15 = system: HCT-15
NCI-H23 = system: NCI-H23
MDA-MB-435 = system: MDA-MB-435
SK-OV-3 = system: SK-OV-3
SK-MEL-2 = system: SK-MEL-2
SNB-75 = system: SNB-75
BT-549 = system: BT-549
CCRF-CEM = system: CCRF-CEM
NCI-H226 = system: NCI-H226
LOX IMVI = system: LOX IMVI
M14 = system: M14
NCI-H460 = system: NCI-H460
OVCAR-3 = system: OVCAR-3
TK-10 = system: TK-10
HOP-62 = system: HOP-62
RXF 393 = system: RXF 393
EKVX = system: EKVX
MCF7 = system: MCF7
SN12C = system: SN12C
MOLT-4 = system: MOLT-4
RPMI-8226 = system: RPMI-8226
MDA-MB-231 = system: MDA-MB-231
PC-3 = system: PC-3
SK-MEL-5 = system: SK-MEL-5
Hs-578T = system: Hs-578T
HT-29 = system: HT-29
DU-145 = system: DU-145
K562 = system: K562
OVCAR-5 = system: OVCAR-5
NCI/ADR-RES = system: NCI/ADR-RES
U-251 = system: U-251
A498 = system: A498
SNB-19 = system: SNB-19
OVCAR-8 = system: OVCAR-8
HL-60 = system: HL-60
HCT-116 = system: HCT-116
UACC-257 = system: UACC-257
SF-539 = system: SF-539
T47D = system: T47D
ACHN = system: ACHN
COLO 205 = system: COLO 205
NCI-H522 = system: NCI-H522
Malme-3M = system: Malme-3M
SK-MEL-28 = system: SK-MEL-28
UO-31 = system: UO-31
IGROV-1 = system: IGROV-1

O=C(Nc1nnc(-c2ccc(Cl)cc2)o1)C(SC(=S)N1CCOCC1)c1ccccc1 (centres undefined)
GI50 (CAKI-1): 20.3 µM (inactive)
GI50 (KM12): 13.7 µM (inactive)
GI50 (OVCAR-4): 20.2 µM (inactive)
GI50 (SW-620): 26 µM (inactive)
GI50 (786-0): 9.35 µM (inactive)
GI50 (SF-295): 13.1 µM (inactive)
GI50 (A549): 13.8 µM (inactive)
GI50 (SR): 8.09 µM (inactive)
GI50 (HCT-15): 6.03 µM
GI50 (NCI-H23): 20.9 µM (inactive)
GI50 (MDA-MB-435): 17.6 µM (inactive)
GI50 (SK-OV-3): 28.1 µM (inactive)
GI50 (SK-MEL-2): 14.7 µM (inactive)
GI50 (SNB-75): 26.4 µM (inactive)
GI50 (BT-549): 16.8 µM (inactive)
GI50 (CCRF-CEM): 10 µM (inactive)
GI50 (NCI-H226): 21.9 µM (inactive)
GI50 (LOX IMVI): 7.94 µM (inactive)
GI50 (M14): 16.1 µM (inactive)
GI50 (NCI-H460): 6.44 µM (inactive)
GI50 (OVCAR-3): 9.38 µM (inactive)
GI50 (TK-10): 44.3 µM (inactive)
GI50 (HOP-62): 16.6 µM (inactive)
GI50 (RXF 393): 26.9 µM (inactive)
GI50 (EKVX): 14.6 µM (inactive)
GI50 (MCF7): 22.3 µM (inactive)
GI50 (SN12C): 8.22 µM (inactive)
GI50 (MOLT-4): 4.38 µM (inactive)
GI50 (RPMI-8226): 9.48 µM (inactive)
GI50 (MDA-MB-231): 30.3 µM (inactive)
GI50 (PC-3): 13.6 µM (inactive)
GI50 (SK-MEL-5): 12.4 µM (inactive)
GI50 (Hs-578T): 46.2 µM (inactive)
GI50 (HT-29): 18.8 µM (inactive)
GI50 (DU-145): 23.7 µM (inactive)
GI50 (K562): 11.6 µM (inactive)
GI50 (OVCAR-5): 34.8 µM (inactive)
GI50 (NCI/ADR-RES): 5.58 µM (inactive)
GI50 (U-251): 12.5 µM (inactive)
GI50 (A498): 20.4 µM (inactive)
GI50 (SNB-19): 27 µM (inactive)
GI50 (OVCAR-8): 19.7 µM (inactive)
GI50 (HL-60): 5.69 µM (inactive)
GI50 (HCT-116): 10.2 µM (inactive)
GI50 (UACC-257): 33 µM (inactive)
GI50 (SF-539): 16.7 µM (inactive)
GI50 (T47D): 21.7 µM (inactive)
GI50 (ACHN): 12.4 µM (inactive)
GI50 (COLO 205): 13.7 µM (inactive)
GI50 (NCI-H522): 16.3 µM (inactive)
GI50 (Malme-3M): 35 µM (inactive)
GI50 (SK-MEL-28): 23.2 µM (inactive)
GI50 (UO-31): 4.97 µM (inactive)
GI50 (IGROV-1): 19.6 µM (inactive)
